Read-outs that look alike come from different tables or passages of the source. Starred links: 1 amine or outer side, 2 acyl side, 3 side chain; linkers in the order of their positions; H or OH if unused. Positions of bridges follow the written chain, without caps; N, C: chain ends. Non-standard residues stand in square brackets, D forms with d. Residues, ends and D or L forms follow the SMILES beside them. *: point of attachment. Arg(Me2s) = CN=C(NC)NCCC[C@H](N)C(=O)O; NMeF = CN[C@@H](Cc1ccccc1)C(=O)O; NMeGABA = CN(CCCC(=O)[*:2])[*:1]; NMeI = CC[C@H](C)[C@H](NC)C(=O)O; hPhe = N[C@@H](CCc1ccccc1)C(=O)O; NMeβAla = CN(CCC(=O)[*:2])[*:1]; NMeL = CN[C@@H](CC(C)C)C(=O)O; NMeV = CN[C@H](C(=O)O)C(C)C; NMeS = CN[C@@H](CO)C(=O)O; NMeA = CN[C@@H](C)C(=O)O; Piperidide = C1CCN(*)CC1; dNMeA = CN[C@H](C)C(=O)O; β3hA = C[C@H](N)CC(=O)O; Abu = CC[C@H](N)C(=O)O; Aib = CC(C)(N)C(=O)O; Sar = CNCC(=O)O; tBu = CC(C)(C)*
How the values were obtained:
[1] = PAMPA (parallel artificial membrane permeability assay); assay type: in vitro ADME; conditions: PAMPA
Method in brief: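 Artificial membrane was 10% (w/v) egg lecithin plus 0.5% (w/v) cholesterol in dodecane on a PVDF filter. A 10 mM DMSO stock was added at 0.5% (v/v) to donor buffer (50 mM MOPSO, pH 6.5, 5.0% glycocholic acid). After 18 h at 37 °C, LC/MS or LC/UV gave donor and acceptor levels for Pe.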

[2] = Metabolic stability in human hepatic microsome; assay type: in vitro ADME; conditions: microsomes
[3] = membrane permeation rate (Pe), 50 mM MOPSO buffer pH 6.5 with 5.0% glycocholic acid, 37° C., 18 hours, read-out: iPAMPA Pe
[4] = pH 7.4, human hepatic microsome, NADPH(+), read-out: CL NADPH(+)

| Compound | Papp at 18 hours, 50 µM [1, 3] [×10⁻⁶ cm/s] | microsomal CLint at 1 uM [2, 4] [µL/min/mg] | Papp at 18 hours, 50 µM ([1]; pH 6.5) [×10⁻⁶ cm/s] | microsomal CLint at 1 uM ([2]; human, pH 7.4, CL NADPH(+)) [µL/min/mg] |
| --- | --- | --- | --- | --- |
| CC(C)C[C@H]1C(=O)N(C)[C@@H](Cc2ccccc2)C(=O)N[C@H](C(=O)N2CCCCC2)CC(=O)N(C)CC(=O)N[C@@H]([C@@H](C)O)C(=O)N(C)[C@@H](C)C(=O)N[C@@H](COC(C)(C)C)C(=O)N(C)[C@@H](Cc2ccccc2)C(=O)N1C [DP-521] ([Sar]T[NMeA]S(tBu)[NMeF][NMeL][NMeF]D-Piperidide; lactam N-8) | 44 | 125 | – | – |
| CC(C)C[C@H]1C(=O)N[C@@H](C)CC(=O)N(C)[C@H](C)C(=O)N(C)[C@@H](Cc2ccccc2)C(=O)N(C)[C@@H](CC(C)C)C(=O)N[C@@H]([C@@H](C)O)C(=O)N(C)CC(=O)N[C@@H](COC(C)(C)C)C(=O)N1C [DP-797] (cyclo([NMeF][NMeL]T[Sar]S(tBu)[NMeL][β3hA][dNMeA])) | 26 | 91 | – | – |
| CC(C)C[C@H]1C(=O)N(C)[C@@H](C(C)C)C(=O)N(C)[C@@H](C)C(=O)N[C@H](C(=O)N(C)[C@@H](Cc2ccccc2)C(=O)N(C)[C@@H](Cc2ccccc2)C(=O)N[C@@H](C)C(=O)N2CCCCC2)CC(=O)N(C)CCC(=O)N(C)CC(=O)N[C@@H]([C@@H](C)O)C(=O)N[C@@H](Cc2ccccc2)C(=O)N(C)[C@@H](C(C)C)C(=O)N[C@@H](C)C(=O)N1C [DP-497] ([NMeβAla][Sar]TF[NMeV]A[NMeL][NMeV][NMeA]D[NMeF][NMeF]A-Piperidide; lactam N-10) | 9.3 | 58 | – | – |
| CC[C@H](C)[C@@H]1NC(=O)[C@H](C)N(C)C(=O)[C@H](CC(C)C)N(C)C(=O)[C@H](Cc2ccccc2)NC(=O)[C@H](CC(C)C)N(C)C(=O)[C@H](CC(C)C)N(C)C(=O)[C@H](C)N(C)C(=O)[C@H](Cc2ccccc2)N(C)C(=O)[C@@H](C)N(C)C(=O)C[C@@H](C(=O)N[C@H](C(=O)N2CCCCC2)[C@@H](C)CC)NC(=O)[C@H](CC(C)C)N(C)C(=O)[C@H]([C@@H](C)O)NC(=O)[C@H](COC(C)(C)C)NC1=O [DP-963] ([dNMeA][NMeF][NMeA][NMeL][NMeL]F[NMeL][NMeA]IS(tBu)T[NMeL]DI-Piperidide; lactam N-13) | 0.1 | 18 | – | – |
| CC[C@@H]1NC(=O)[C@H](CC(C)C)N(C)C(=O)[C@H](CC(C)C)NC(=O)[C@H](CC(C)C)N(C)C(=O)CN(C)C(=O)C[C@H](C)NC(=O)[C@H](CO)N(C)C(=O)[C@H](CC(C)C)N(C)C(=O)[C@H](CC(C)C)N(C)C(=O)[C@H](CC(C)C)N(C)C(=O)[C@@H](CC(C)C)NC1=O [DP-641] (cyclo([Abu][dL][NMeL][NMeL][NMeL][NMeS][β3hA][Sar][NMeL]L[NMeL])) | 46 | 91 | – | – |
| CC[C@H](C)[C@@H]1NC(=O)[C@H](CC(C)C)NC(=O)[C@H](C(C)C)NC(=O)[C@H](CC(C)C)N(C)C(=O)[C@H](CC(C)C)NC(=O)[C@H](CCc2ccccc2)NC(=O)[C@H]([C@@H](C)O)NC(=O)[C@H](C)N(C)C(=O)[C@H](CC(C)C)NC(=O)[C@H](C)N(C)C(=O)C[C@@H](C(=O)N2CCCCC2)NC1=O [DP-728] ([NMeA]L[NMeA]T[hPhe]L[NMeL]VLID-Piperidide; lactam N-11) | 6.5 | 42 | – | – |
| CC[C@H](C)[C@H]1C(=O)NCC(=O)N(C)[C@@H](CC(C)C)C(=O)N[C@@H]([C@@H](C)O)C(=O)N2CCC[C@H]2C(=O)NC(C)(C)C(=O)N[C@H](C(=O)N2CCCCC2)CC(=O)N(C)[C@@H](C)C(=O)N[C@@H](Cc2ccccc2)C(=O)N(C)[C@@H](CC(C)C)C(=O)N[C@@H](CC(C)C)C(=O)N1C [DP-564] ([NMeA]F[NMeL]L[NMeI]G[NMeL]TP[Aib]D-Piperidide; lactam N-11) | 27 | 80 | – | – |
| CC(C)C[C@@H]1NC(=O)[C@H](CC(C)C)N(C)C(=O)[C@H](C)NC(=O)[C@H](C(C)C)N(C)C(=O)CN(C)C(=O)[C@H]([C@@H](C)O)NC(=O)[C@H](C)N(C)C(=O)[C@H](CC(C)C)N(C)C(=O)[C@@H](C)NC(=O)C[C@H](C)NC1=O [DP-818] (cyclo(A[NMeL]L[β3hA][dA][NMeL][NMeA]T[Sar][NMeV])) | 2 | 1 | – | – |
| CC(C)C[C@H]1C(=O)N(C)[C@@H](Cc2ccccc2)C(=O)N[C@@H](Cc2ccccc2)C(=O)N(C)[C@@H](C)C(=O)N(C)[C@@H](C(C)C)C(=O)N[C@@H]([C@@H](C)O)C(=O)N[C@H](C(=O)N2CCCCC2)CC(=O)N(C)[C@@H](C)C(=O)N[C@@H](COC(C)(C)C)C(=O)NCC(=O)N1C [DP-438] ([NMeA]S(tBu)G[NMeL][NMeF]F[NMeA][NMeV]TD-Piperidide; lactam N-10) | 38 | 155 | – | – |
| CC[C@H](C)[C@@H]1NC(=O)[C@H](CC(C)C)N(C)C(=O)[C@H](C)NC(=O)CCCN(C)C(=O)C[C@H](C)NC(=O)[C@H]([C@@H](C)O)NC(=O)[C@H](Cc2ccccc2)NC(=O)[C@H](C(C)C)N(C)C(=O)[C@H](CC(C)C)N(C)C1=O [DP-823] (cyclo(A[NMeL]I[NMeL][NMeV]FT[β3hA][NMeGABA])) | 31 | 254 | – | – |
| CC[C@H](C)[C@H](NC(=O)[C@H](Cc1ccccc1)NC(=O)[C@@H]1CC(=O)N[C@@H](C)C(=O)N[C@@H]([C@@H](C)O)C(=O)N(C)CC(=O)N[C@@H](CC(C)C)C(=O)N2CCC[C@H]2C(=O)N(C)[C@@H](CC(C)C)C(=O)N[C@@H](Cc2ccccc2)C(=O)N(C)[C@@H](Cc2ccccc2)C(=O)N(C)[C@@H](CC(C)C)C(=O)N[C@@H](C)C(=O)N(C)[C@@H](CC(C)C)C(=O)N1)C(=O)N1CCCCC1 [DP-952] (AT[Sar]LP[NMeL]F[NMeF][NMeL]A[NMeL]DFI-Piperidide; lactam N-12) | – | – | 4.4 | 91 |
| CC[C@H](C)[C@@H]1NC(=O)[C@H](CC(C)C)N(C)C(=O)CN(C)C(=O)[C@H](Cc2ccccc2)NC(=O)[C@H](C(C)C)N(C)C(=O)[C@H](C)N(C)C(=O)[C@H]([C@@H](C)O)NC(=O)[C@H](C)N(C)C(=O)C[C@@H](C(=O)N(C)[C@@H](CC(C)C)C(=O)N[C@H](C(=O)N(C)[C@@H](CC(C)C)C(=O)N[C@@H](C)C(=O)N2CCCCC2)[C@@H](C)O)NC(=O)[C@H](C)NC1=O [DP-581] ([NMeA]T[NMeA][NMeV]F[Sar][NMeL]IAD[NMeL]T[NMeL]A-Piperidide; lactam N-10) | 2.7 | 7 | – | – |
| CC[C@H](C)[C@@H]1NC(=O)[C@H](CC(C)C)N(C)C(=O)[C@H](C(C)C)NC(=O)[C@H](CC(C)C)NC(=O)[C@H](CC(C)C)NC(=O)[C@H]([C@@H](C)O)NC(=O)[C@H](Cc2ccccc2)NC(=O)[C@H](CC(C)C)NC(=O)[C@H](C(C)C)N(C)C(=O)CCN(C)C(=O)C[C@@H](C(=O)N2CCCCC2)NC1=O [DP-412] ([NMeβAla][NMeV]LFTLLV[NMeL]ID-Piperidide; lactam N-11) | 26 | 122 | – | – |
| CC[C@H](C)[C@H]1C(=O)N(C)[C@@H](C)C(=O)N(C)[C@@H](CC(C)C)C(=O)N[C@@H](COC(C)(C)C)C(=O)N(C)[C@@H](CC(C)C)C(=O)N[C@@H](C)CC(=O)N(C)[C@@H](C)C(=O)N(C)[C@@H](Cc2ccccc2)C(=O)N[C@@H](CC(C)C)C(=O)N(C)[C@@H](CC(C)C)C(=O)N[C@@H]([C@@H](C)O)C(=O)N1C [DP-817] (cyclo(L[NMeL]T[NMeI][NMeA][NMeL]S(tBu)[NMeL][β3hA][NMeA][NMeF])) | 25 | 165 | – | – |
| CC[C@H](C)[C@H](NC(=O)[C@H](Cc1ccccc1)N(C)C(=O)[C@H](Cc1ccccc1)N(C)C(=O)[C@@H]1CC(=O)N(C)CCC(=O)N[C@@H]([C@@H](C)CC)C(=O)N(C)[C@@H](Cc2ccccc2)C(=O)N(C)[C@@H](CC(C)C)C(=O)N[C@@H]([C@@H](C)O)C(=O)N(C)CC(=O)N(C)[C@@H](CC(C)C)C(=O)N[C@@H](C(C)C)C(=O)N(C)[C@@H](CC(C)C)C(=O)N1)C(=O)N1CCCCC1 [DP-961] ([NMeβAla]I[NMeF][NMeL]T[Sar][NMeL]V[NMeL]D[NMeF][NMeF]I-Piperidide; lactam N-10) | 0.57 | 33 | – | – |
| CC[C@H](C)[C@H]1C(=O)N(C)[C@@H](C)C(=O)N[C@@H](Cc2ccccc2)C(=O)N[C@@H]([C@@H](C)O)C(=O)N[C@@H](CC(C)C)C(=O)N(C)[C@@H](Cc2ccccc2)C(=O)N(C)[C@@H](C(C)C)C(=O)N[C@H](C(=O)N2CCCCC2)CC(=O)N[C@@H](C)C(=O)N[C@@H](CC(C)C)C(=O)N1C [DP-18] (AL[NMeI][NMeA]FTL[NMeF][NMeV]D-Piperidide; lactam N-10) | – | – | 30 | 202 |
| CC(C)C[C@H]1C(=O)N[C@H](C(=O)N(C)[C@@H](Cc2ccccc2)C(=O)N[C@@H](C)C(=O)N2CCCCC2)CC(=O)N[C@H](C)C(=O)N(C)[C@@H](Cc2ccccc2)C(=O)N(C)[C@@H](CC(C)C)C(=O)N[C@@H]([C@@H](C)O)C(=O)N(C)[C@@H](C)C(=O)N(C)[C@@H](CC(C)C)C(=O)N[C@@H](C(C)C)C(=O)N1C [DP-197] ([dA][NMeF][NMeL]T[NMeA][NMeL]V[NMeL]D[NMeF]A-Piperidide; lactam N-9) | 27 | 48 | – | – |
| C/N=C(\NC)NCCC[C@@H]1NC(=O)[C@@H]2CCCN2C(=O)[C@H](CC(C)C)NC(=O)[C@H](CC(C)C)N(C)C(=O)[C@H](Cc2ccccc2)NC(=O)CN(C)C(=O)[C@H](CC(C)C)N(C)C(=O)[C@H](Cc2ccccc2)NC(=O)CN(C)C(=O)C[C@@H](C(=O)N(C)[C@@H](Cc2ccccc2)C(=O)N[C@@H](C)C(=O)N2CCCCC2)NC(=O)[C@H](CC(C)C)NC1=O [DP-597] ([Sar]F[NMeL][Sar]F[NMeL]LP[Arg(Me2s)]LD[NMeF]A-Piperidide; lactam N-11) | – | – | 1.7 | 12 |

Reference: patent US9409952B2, “Peptide-compound cyclization method” (Chugai Seiyaku Kabushiki Kaisha, priority 2011, dated 2016)
